Where two headings read alike, the source gives them in different places.
Experiments:
[1] = In vivo safety profile in HL-60 engrafted mice; design: species or system mouse; settings: 200 mg/kg orally, once daily for 14 days
Procedure: Female 6–7-week-old BALB/c nude mice with tumour volumes of 100–200 mm^3 were allocated to two groups (n = 3 per group) and treated with vehicle (0.5% HPMC in water) or rilpivirine (200 mg/kg) daily for 14 days. Upon 24 h post the final dose, mice were humanely killed, and blood, bone marrow, heart, kidney, intestine, liver, and stomach were collected for histopathological analysis. Blood was collected in citrate-treated tubes and a complete blood count was performed by Gribbles Veterinary Pathology (South Australia, Australia). Organs were collected in 10% neutral buffered formalin and stained with hematoxylin and eosin externally by the Hanson Histology Services (South Australia, Australia), while histopathologic analysis was performed by a board-certified pathologist.

[2] = test system: leukaemia cell lines (HL-60, NB4, K-562, and U-937); experiment: Resazurin cell viability assay, four cell lines; type: cell-based; settings: Homo sapiens; after 24, 48, or 72 h of treatment; read-out: GI50 values, range over all cell lines
Procedure: (§1) Cell viability was determined by a resazurin-based assay as described previously. Briefly, 5 × 10^3 cells/well were seeded into 96-well plates (Corning Inc., Corning, NY, USA) in 180 µL of RPMI 1640 medium and incubated overnight at 37 °C with 5% CO2. Next day, cells were treated with rilpivirine after serially diluted (1:2 dilution for final concentrations ranging from 0.625 µM to 40 µM) or DMSO (0.1%) for specified time periods (24, 48, or 72 h). At the end of the treatment period, 20 µL of resazurin (0.1 mg/mL in PBS) was added per well and incubated for further 4 h. Fluorescence intensities were recorded at 570 nm (excitation)/585 nm (emission) using an EnVision® multilabel plate reader (PerkinElmer, MA, USA). Drug concentrations required for cell viability reduction by 50% (GI50) compared with untreated (DMSO vehicle-treated only) control were determined by a non-linear regression model using GraphPad Prism software version 7.02 (La Jolla, CA, USA).

NB4 cells [3] = experiment: Apoptosis, annexin V/PI double staining; type: cell-based, human; settings: 48 h
Procedure: (§2) The cellular apoptosis was detected using annexin-V/PI double staining by following a method described previously. Briefly, cells were added in 6-well plates containing 3 mL of medium each well at 8 × 10^4 cells/well and incubated at 37 °C, 5% CO2. After overnight incubation, the test compounds were added to the cells and again incubated for desired time points. Then, the cells were collected in FACS tubes, washed with PBS and incubated with annexin V and PI solution for 15 min in the dark at room temperature. The apoptotic cell death was measured within 1 h using the same instrument and data processing software described for cell cycle analysis.

U-937 cells [4] = experiment: Apoptosis, annexin V/PI double staining; type: cell-based, human; settings: 48 h
Procedure: as §2

MV4-11 cells = experiment: Apoptosis, annexin V/PI double staining; type: cell-based, human; settings: 10 or 20 μM, 48 h; FLT3-ITD mutation
Procedure: as §2

HL-60 cells [5] = experiment: Apoptosis, annexin V/PI double staining; type: cell-based, human; settings: 48 h
Procedure: as §2

K-562 cells = experiment: Apoptosis, annexin V/PI double staining; type: cell-based, human; settings: 48 h
Procedure: as §2

Aurora A = target: Aurora A; design: method as in PMID 36297298; settings: apparent Ki from IC50 and Km (ATP), cited from earlier work
[6] = test system: Aurora A kinase signalling pathway proteins in HL-60 cells; experiment: Western blotting, HL-60 time course and combination; type: cell-based, human; settings: 10 µM, time course
Procedure: Western blotting was performed following a method described previously. Briefly, 8 × 10^5 to 1 × 10^6 cells were seeded in petri dishes with 8 to 10 mL of culture medium and incubated overnight at 37 °C, 5% CO2. Then, the cells were treated with the test compounds and further incubated for the specified time point. Cells were then lysed using a lysis buffer containing protease inhibitors, and proteins were extracted by centrifugation. Protein concentrations were determined by using a Bio-Rad DC^TM protein assay kit (Bio-Rad Laboratories, Hercules, CA, USA). A total of 20–30 μg of proteins was loaded onto each well of 4–20% polyacrylamide gels for electrophoresis. Once electrophoresis was completed, gels were placed on pre-soaked polyvinylidene difluoride membranes and blocked with 10% skimmed milk in 1 × Tris-buffered saline and Tween (TBST). Then, the blots were incubated with primary antibodies, followed by washing with TBST for 4 × 20 min. After this, the blots were incubated with the appropriate horseradish peroxidase (HRP)-conjugated secondary antibody, followed by washing again with TBST for 4 × 20 min. The protein bands were then detected with either ECL prime (Amersham^TM ECL^TM prime Western blotting detection reagent) or ECL select (Amersham^TM ECL^TM select Western blotting detection reagent) depending on the abundance of the protein of interest. The blots were imaged using the Bio-Rad ChemiDoc^TM MP imaging system (Bio-Rad Laboratories, Hercules, CA, USA). All the primary and secondary antibodies used in this study were purchased from Cell Signaling Technology (Danvers, MA, USA).

NB4 cells [7] = experiment: Resazurin cell viability assay; type: cell-based; settings: Homo sapiens
Procedure: as §1

U-937 cells [8] = experiment: Resazurin cell viability assay; type: cell-based; settings: Homo sapiens
Procedure: as §1

HL-60 cells [9] = experiment: Resazurin cell viability assay; type: cell-based; settings: Homo sapiens, read-out: GI50
Procedure: Cell viability was determined by a resazurin-based assay as described previously. […] At the end of the treatment period, 20 µL of resazurin (0.1 mg/mL in PBS) was added per well and incubated for further 4 h.

[10] = Tolerated dose in non-tumour-bearing mice; type: in vivo; settings: up to an oral dose of 300 mg/kg, once daily for seven days; non-tumour-bearing female BALB/c nude mice
Procedure: Animal experiments were performed as reported previously. All animal experiments were conducted following the institutional ethical principles of animal care and approved by the University of South Australia Animal Ethics Committee.

SMILES: Cc1cc(/C=C/C#N)cc(C)c1Nc1ccnc(Nc2ccc(C#N)cc2)n1 [rilpivirine, (E)-4-((4-((4-(2-cyanoethenyl)-2,6-dimethylphenyl)amino)pyrimidin-2-yl)amino)benzonitrile]
- complete blood count (red blood cells, neutrophils, lymphocytes, platelets) [1]: did not show any noticeable effects
- histopathology of major organs [1]: did not cause any tissue damage in major organs
- GI50 [2]: 4.12 to 12.4 µM
- apoptotic cells (early and late apoptosis) (NB4 cells [3]; 5 µM): 31.62%
- apoptotic cells (early and late apoptosis) (NB4 cells [3]; 10 µM): 87.04%
- apoptotic cells (early and late apoptosis) (NB4 cells [3]; 20 µM): 98.9%
- apoptotic cells (early and late apoptosis) (U-937 cells [4]; 5 µM): 20.68%
- apoptotic cells (early and late apoptosis) (U-937 cells [4]; 10 µM): 29.58%
- apoptotic cells (early and late apoptosis) (U-937 cells [4]; 20 µM): 39.47%
- apoptosis induction (MV4-11 cells): induced significant apoptosis
- apoptotic cells (early and late apoptosis) (HL-60 cells [5]; 5 µM): 6.94%
- apoptotic cells (early and late apoptosis) (HL-60 cells [5]; 10 µM): 48.73%
- apoptotic cells (early and late apoptosis) (HL-60 cells [5]; 20 µM): 67.32%
- apoptotic cells (early and late apoptosis) (K-562 cells; 5 µM): 15.06%
- apoptotic cells (early and late apoptosis) (K-562 cells; 10 µM): 31.88%
- apoptotic cells (early and late apoptosis) (K-562 cells; 20 µM): 38.21%
- Ki (Aurora A): ~0.116 µM
- Ki (Aurora A; listed as Rilpivirine): 0.12 µM
- time from which PARP cleavage was detected [6]: ≥ 12 h
- time of maximum induction of phospho-Histone H3 (Ser10) [6]: 18 h
- time until inhibition of Aurora-A autophosphorylation was evident [6]: ≤ 6 h
- GI50 (NB4 cells [7]; NB-4, 24 h): 8.94 ± 1.02 µM
- GI50 (NB4 cells [7]; NB-4, 48 h): 6.54 ± 0.83 µM
- GI50 (NB4 cells [7]; NB-4, 72 h): 4.6 ± 0.35 µM
- GI50 (U-937 cells [8]; U-937, 24 h): 12.1 ± 2.97 µM
- GI50 (U-937 cells [8]; U-937, 48 h): 5.77 ± 1 µM
- GI50 (U-937 cells [8]; U-937, 72 h): 4.79 ± 0.17 µM
- GI50 (HL-60 cells [9]; HL-60, 24 h): 9.16 ± 1.05 µM
- GI50 (HL-60 cells [9]; HL-60, 48 h): 6.26 ± 0.15 µM
- GI50 (HL-60 cells [9]; HL-60, 72 h): 4.12 ± 0.18 µM
- body weight and clinical signs of toxicity [10]: did not cause any significant changes in body weight (i.e., >15%) or show overt clinical signs of toxicity

— PMC9954146, “Anti-Leukaemic Activity of Rilpivirine Is Mediated by Aurora A Kinase Inhibition” (Cancers, 2023)
